Test systems include 786-0 renal; A498 renal; COLO 205 colon; HCC-2998 colon; HCT-15 colon; HT29 colon; K-562 leukemia; MCF7 breast; MDA-N; SF-268 CNS; U251 CNS.
Common to all, as to assay: NCI-60 cell line screen, 48 h

Consider 4 compounds from PubChem BioAssay (NCI).

SMILES strings stand for the structures.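 Grown in 96-well plates, cells were treated for 48 hours with each compound at five concentrations. Insufficient inhibition: endpoint recorded as highest concentration tested. TGI is the concentration that stops growth completely.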 Bounds are passed on as bounds.

Turning to `COc1ccc2cc(CNCCOCCOCCNCc3ccc4cc(OC)ccc4c3)ccc2c1`, the TGI worked out at 2.19 µM in the test on 786-0 renal; 3.78 µM with A498 renal; 0.346 µM in the test on COLO 205 colon; 0.319 µM in the test with HCC-2998 colon; 1.63 µM in the test on HCT-15 colon; 0.394 µM in the test on HT29 colon. Besides, the TGI came out at 1.92 µM with K-562 leukemia; 2.5 µM in the test with MCF7 breast; 2.35 µM in the test with MDA-N; 2.99 µM with SF-268 CNS; 8.46 µM in the test with U251 CNS.
On to `C1=Nc2ccc(cc2)-c2ccc(cc2)N=Cc2ccccc2OCc2cccc(n2)COc2ccccc21`, for which the TGI in the test on 786-0 renal is 33.1 µM; in the test on A498 renal, more than 100 µM; in the test on COLO 205 colon it was more than 100 µM; in the test with HCC-2998 colon, more than 100 µM; in the test on HCT-15 colon, more than 100 µM; in the test with HT29 colon, more than 100 µM. Moreover, the TGI was more than 100 µM in the test on K-562 leukemia; more than 100 µM in the test on MCF7 breast; more than 100 µM with MDA-N; more than 100 µM in the test with SF-268 CNS; more than 42.8 µM in the test on U251 CNS.
With `COc1c(C(=O)CC2c3c(cc4oc(C)cc(=O)c4c3OC)OC(=N)C2c2nc3ccccc3[nH]2)c(O)c(OC)c2occc12` (centres undefined), the TGI in the test on 786-0 renal, with A498 renal, in the test on COLO 205 colon, with HCC-2998 colon, with HCT-15 colon and in the test on HT29 colon was more than 100 µM throughout. For the same compound, the TGI with K-562 leukemia, in the test with MCF7 breast, with MDA-N, in the test on SF-268 CNS and in the test on U251 CNS was more than 100 µM each time.
Consider `O=S1(=O)OCCOS(=O)(=O)C1C1c2ccccc2-c2ccccc21`, for which the TGI in the test with 786-0 renal, with A498 renal, with COLO 205 colon, with HCC-2998 colon, in the test on HCT-15 colon and in the test on HT29 colon was more than 100 µM throughout. Further, the TGI was more than 100 µM with K-562 leukemia; more than 100 µM in the test with MCF7 breast; more than 100 µM in the test on MDA-N; more than 100 µM in the test on SF-268 CNS; 57.9 µM with U251 CNS.
